Legend:
Assay type in all cases: cell-based
ΔF508 CFTR = ΔF508 CFTR (Homo sapiens, UniProt P13569, DEL508-508); experiment: TECC assay, FRT-CFTR ΔF508 protocol; conditions: FRT cells stably transfected with ΔF508 CFTR, 3 μM VX809 24 hours, increase in transepithelial conductance (Gt), high expression cells
Description: For ΔF508 recordings, Fischer Rat Thyroid (FRT) cells stably transfected with ΔF508 CFTR (cell line from Rosalind Franklin University of Medicine and Science, North Chicago, Ill.) are plated on Transwell® supports (Costar 6.5 mm diameter, 0.4 μm pore size Cat n#3378). The cells are grown for 8-10 days under liquid-liquid interface conditions prior to electrophysiological readings. The differentiated cells are treated with 3 μM VX809 (2626 South Loop West, Suite 225, Houston, Tex. 77054 USA, Cat n# S1565) to allow sufficient expression of properly folded CFTR protein on the membrane (24 hours basolateral treatment), prior to electrophysiological recordings. For electrophysiological recording, the FRT-ΔF508 cells are mounted in the TECC heating plate for electrophysiological measurement and kept at 37° C. The epithelia are bathed in HEPES buffered culturing medium without FBS on both the basolateral and apical sides. Apical amiloride is used to inhibit the endogenous ENaC currents while forkolin is applied on both apical and basolateral side to stimulate CFTR. After forskolin triggering, compounds are added on both sides to test their potential for increasing CFTR gating. Measurements are done during a 10 minute timeframe with recordings every 2 minutes. The increase in transepithelial conductance (Gt) is used as a measure for the increased CFTR activity, EC50 values can be generated by measuring impact of different concentrations of compound on Gt of the cells, for this purpose each transwell is treated with a different compound concentration. Inh-172, an inhibitor specific for CFTR, is used to test the specificity of the tested compounds.

CFTR G551D/ΔF508 = biological target: T1, CFTR G551D/ΔF508 (Homo sapiens, UniProt P13569, G551D); experiment: TECC assay, primary bronchial epithelial cells, CFTR G551D/ΔF508; conditions: primary bronchial epithelial cells heterozygous G551D/ΔF508, acute mode, increase in Isc after forskolin
T1 construct: host or cells: primary human bronchial epithelial cells from CF patients heterozygous G551D/ΔF508, no corrector pre-treatment
T1 sequence (P13569 whole entry F508del/G551D): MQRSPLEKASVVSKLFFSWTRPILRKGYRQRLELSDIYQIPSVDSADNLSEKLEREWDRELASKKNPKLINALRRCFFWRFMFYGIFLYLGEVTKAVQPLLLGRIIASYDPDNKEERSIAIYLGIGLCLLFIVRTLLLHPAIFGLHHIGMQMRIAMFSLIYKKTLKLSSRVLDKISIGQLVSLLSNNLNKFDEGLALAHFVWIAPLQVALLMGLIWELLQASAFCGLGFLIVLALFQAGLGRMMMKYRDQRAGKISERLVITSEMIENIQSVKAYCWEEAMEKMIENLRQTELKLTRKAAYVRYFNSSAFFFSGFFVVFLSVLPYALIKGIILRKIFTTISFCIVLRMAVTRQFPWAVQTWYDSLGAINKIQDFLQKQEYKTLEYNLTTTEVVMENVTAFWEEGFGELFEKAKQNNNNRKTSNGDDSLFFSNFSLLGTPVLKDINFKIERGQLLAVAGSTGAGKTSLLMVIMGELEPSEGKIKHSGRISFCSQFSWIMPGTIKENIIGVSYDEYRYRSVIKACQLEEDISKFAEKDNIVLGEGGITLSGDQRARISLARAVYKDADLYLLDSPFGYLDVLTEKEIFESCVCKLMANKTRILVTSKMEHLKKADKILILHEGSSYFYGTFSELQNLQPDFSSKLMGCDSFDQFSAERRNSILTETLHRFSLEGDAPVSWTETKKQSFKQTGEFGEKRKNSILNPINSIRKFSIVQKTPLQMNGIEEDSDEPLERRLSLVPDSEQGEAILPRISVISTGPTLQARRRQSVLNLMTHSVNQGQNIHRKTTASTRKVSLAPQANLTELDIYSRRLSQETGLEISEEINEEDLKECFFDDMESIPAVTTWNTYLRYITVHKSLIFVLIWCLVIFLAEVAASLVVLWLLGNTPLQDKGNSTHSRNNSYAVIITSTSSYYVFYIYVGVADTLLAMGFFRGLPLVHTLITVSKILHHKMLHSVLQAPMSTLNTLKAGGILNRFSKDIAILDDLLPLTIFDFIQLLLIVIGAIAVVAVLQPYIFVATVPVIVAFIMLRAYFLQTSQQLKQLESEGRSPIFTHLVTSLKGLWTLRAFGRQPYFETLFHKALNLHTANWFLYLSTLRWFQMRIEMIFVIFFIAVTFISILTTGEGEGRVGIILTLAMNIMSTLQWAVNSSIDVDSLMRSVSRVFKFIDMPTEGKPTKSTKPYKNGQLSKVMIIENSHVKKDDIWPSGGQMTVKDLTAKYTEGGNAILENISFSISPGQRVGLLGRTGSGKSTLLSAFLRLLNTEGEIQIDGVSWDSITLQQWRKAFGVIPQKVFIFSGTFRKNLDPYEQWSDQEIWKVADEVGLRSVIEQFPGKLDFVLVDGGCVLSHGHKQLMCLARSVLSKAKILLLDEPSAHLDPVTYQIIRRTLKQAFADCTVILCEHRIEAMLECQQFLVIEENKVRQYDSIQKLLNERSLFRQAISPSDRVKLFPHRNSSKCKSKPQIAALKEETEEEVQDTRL
Description: The TECC (Tranepithelial Clamp Circuit, EP-design) assay measures the functionality of the cystic fibrosis Transmembrane Conductance regulator (CFTR) by measuring the short circuit current (Isc) generated over the basolateral and apical membrane of lung epithelial cells. In TECC the transepithelial potential PD and transepithelial resistance (Rt) are measured in an open circuit and transformed to Isc using Ohm's law. 24 Wells can be measured simultaneously allowing a higher throughput compared to Ussing chambers.
For this purpose, bronchial epithelial cells isolated from CF patients homozygous for the CFTR ΔF508 mutation (hAEC-CF, Epithelix) are plated on type IV collagen-coated Transwell® supports (Costar). Human airway epithelia are generated by provision of an air-liquid interface for 21 days to form well-differentiated polarized cultures that resemble in vivo pseudo-stratified ciliated epithelium (Fulcher, M. L., Gabriel, S., Burns, K. A., Yankaskas, J. R., Randell, S. H., 2005. Well-differentiated human airway epithelial cell cultures. Methods Mol. Med. 107, 183-206). In the case of the homozygous ΔF508 CFTR samples, the differentiated cells are treated with 3 μM VX809 (2626 South Loop West, Suite 225, Houston, Tex. 77054 USA, Cat n# S1565) to allow sufficient expression of properly folded CFTR protein on the membrane (48 hours basolateral treatment and 24 hours apical treatment), prior to electrophysiological recordings. For heterozygous G551D/ΔF508, differentiated cells are used as such for the recordings.
Information on the compounds can be retrieved on the homozygous ΔF508 CFTR samples looking at increased CFTR activity when compounds are added in an acute mode or in a chronic mode. On G551D/ΔF508 CFTR heterozygous samples compounds are added in an acute mode to the differentiated cells.
For the acute mode, for electrophysiological recording, the human airway epithelia are mounted in the TECC heating plate for electrophysiological measurement and kept at 37° C. The epithelia are bathed in a NaCl-Ringer solution (120 mM NaCl, 25 mM NaHCO3, 1.2 mM CaCl2, 1.2 mM MgCl2, 0.8 mM KH2PO4, 0.8 mM K2HPO4, pH 7.4, 5 mM glucose) on both the basolateral and apical sides. Apical amiloride is used to inhibit the endogenous ENaC currents while forkolin is applied on both apical and basolateral side to stimulate CFTR. After forskolin triggering, compounds are added on both sides to test their potential for increasing CFTR gating. Measurements are done during a 20 minute timeframe with recordings every 2 minutes. The increase in Isc is used as a measure for the increased CFTR activity, EC50 values can be generated by measuring impact of different concentrations of compound on Isc on primary cells, for this purpose each transwell is treated with a different compound concentration. Inh-172, an inhibitor specific for CFTR, is used to test the specificity of the tested compounds.
When subjected to this protocol, the following values were obtained. The difference between ΔIsc measured as DMSO (baseline), and the ΔIsc measured with the compound tested.

G551D CFTR = G551D CFTR (Homo sapiens, UniProt P13569, G551D); experiment: TECC assay, FRT-CFTR G551D protocol; conditions: FRT cells stably transfected with G551D CFTR, high expression cells, increase in Isc after forskolin
Chain of G551D CFTR (P13569 whole entry G551D): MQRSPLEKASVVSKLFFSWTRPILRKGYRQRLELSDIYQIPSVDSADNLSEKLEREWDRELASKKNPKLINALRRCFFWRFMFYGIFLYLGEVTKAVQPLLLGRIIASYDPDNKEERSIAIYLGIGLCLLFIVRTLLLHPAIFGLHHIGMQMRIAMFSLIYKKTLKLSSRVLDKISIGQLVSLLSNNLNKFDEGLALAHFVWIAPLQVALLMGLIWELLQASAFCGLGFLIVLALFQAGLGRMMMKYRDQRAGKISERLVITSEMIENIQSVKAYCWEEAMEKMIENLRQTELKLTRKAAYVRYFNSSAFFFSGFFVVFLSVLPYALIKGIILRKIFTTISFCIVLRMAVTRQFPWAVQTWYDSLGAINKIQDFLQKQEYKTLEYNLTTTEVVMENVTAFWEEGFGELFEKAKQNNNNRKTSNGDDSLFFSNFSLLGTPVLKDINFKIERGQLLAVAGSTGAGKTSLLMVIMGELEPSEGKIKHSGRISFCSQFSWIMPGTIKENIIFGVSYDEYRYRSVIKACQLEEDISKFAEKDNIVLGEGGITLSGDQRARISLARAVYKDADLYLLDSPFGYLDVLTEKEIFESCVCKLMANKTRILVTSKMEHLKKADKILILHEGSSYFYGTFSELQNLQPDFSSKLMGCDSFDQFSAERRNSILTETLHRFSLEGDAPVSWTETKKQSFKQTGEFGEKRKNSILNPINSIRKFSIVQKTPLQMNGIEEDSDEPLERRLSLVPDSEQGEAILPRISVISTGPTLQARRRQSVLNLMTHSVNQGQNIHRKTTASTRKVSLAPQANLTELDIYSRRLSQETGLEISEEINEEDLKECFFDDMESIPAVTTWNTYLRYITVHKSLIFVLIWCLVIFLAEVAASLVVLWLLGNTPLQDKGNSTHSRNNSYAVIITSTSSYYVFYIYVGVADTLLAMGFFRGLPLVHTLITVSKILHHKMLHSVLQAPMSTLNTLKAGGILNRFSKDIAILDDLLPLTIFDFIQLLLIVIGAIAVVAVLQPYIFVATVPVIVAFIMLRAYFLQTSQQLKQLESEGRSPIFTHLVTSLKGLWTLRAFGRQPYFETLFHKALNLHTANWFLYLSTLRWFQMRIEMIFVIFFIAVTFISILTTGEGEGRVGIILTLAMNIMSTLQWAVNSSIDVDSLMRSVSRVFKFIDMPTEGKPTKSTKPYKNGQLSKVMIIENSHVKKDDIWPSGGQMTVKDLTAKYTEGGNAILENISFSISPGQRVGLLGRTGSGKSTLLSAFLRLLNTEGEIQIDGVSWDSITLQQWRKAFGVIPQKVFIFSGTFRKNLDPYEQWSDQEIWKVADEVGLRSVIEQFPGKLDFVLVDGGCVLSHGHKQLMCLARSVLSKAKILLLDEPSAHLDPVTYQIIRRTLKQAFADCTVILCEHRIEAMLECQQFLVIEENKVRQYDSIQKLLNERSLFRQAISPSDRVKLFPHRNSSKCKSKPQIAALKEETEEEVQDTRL
Description: For G551D recordings, Fischer Rat Thyroid (FRT) cells stably transfected with G551D CFTR (a low CFTR-G551D expressing cell line and a high expressing CFTR-G551D cell line from Rosalind Franklin University of Medicine and Science, North Chicago, Ill.) are plated on Transwell® supports (Costar 6.5 mm diameter, 0.4 μm pore size). The cells are grown for 8-10 days under liquid-liquid interface conditions prior to electrophysiological readings. For electrophysiological recording, the FRT-G551D cells are mounted in the TECC heating plate for electrophysiological measurement and kept at 37° C. The epithelia are bathed in HEPES buffered culturing medium without FBS on both the basolateral and apical sides. Apical amiloride is used to inhibit the endogenous ENaC currents while forkolin is applied on both apical and basolateral side to stimulate CFTR. After forskolin triggering, compounds are added on both sides to test their potential for increasing CFTR gating. Measurements are done during a 10 minute timeframe with recordings every 2 minutes. The increase in Isc is used as a measure for the increased CFTR activity, EC50 values can be generated by measuring impact of different concentrations of compound on Isc on the cells, for this purpose each transwell is treated with a different compound concentration. Inh-172, an inhibitor specific for CFTR, is used to test the specificity of the tested compounds.

Chain of ΔF508 CFTR (P13569 with tags, fused parts or gaps DEL508-508): as the sequence (P13569 whole entry F508del/G551D) above, with D550G counted along it

SMILES	EC50 (ΔF508 CFTR) [nM]	EC50 (CFTR G551D/ΔF508) [nM]	EC50 (G551D CFTR) [nM]
CC(O)(CNC(=O)c1ncc(S(=O)(=O)c2ccc(OC(F)(F)F)cc2)cc1N)C(F)(F)F (stereo not shown) [Compound 2, 3-amino-N-(3,3,3-trifluoro-2-hydroxy-2-methylpropyl)-5-{[4-(trifluoromethoxy)phenyl]sulfonyl}pyridine-2-carboxamide]	70		
Nc1cc(S(=O)(=O)c2ccc(OC(F)(F)F)cc2)cnc1C(=O)NCCO [Compound 14, 3-amino-N-(2-hydroxyethyl)-5-{[4-(trifluoromethoxy)phenyl]sulfonyl}pyridine-2-carboxamide]		5300	11700
CC(C)(O)CNC(=O)c1ncc(S(=O)(=O)c2ccc(OC(F)(F)F)cc2)cc1N [Compound 1, 3-amino-N-(2-hydroxy-2-methylpropyl)-5-{[4-(trifluoromethoxy)phenyl]sulfonyl}pyridine-2-carboxamide]	180		645
Nc1cc(S(=O)(=O)c2ccc(F)cc2)cnc1C(=O)NC[C@H](O)C(F)(F)F [Compound 25, 3-amino-5-[(4-fluorophenyl)sulfonyl]-N-[(2S)-3,3,3-trifluoro-2-hydroxypropyl]pyridine-2-carboxamide]			1200
C[C@H](O)CNC(=O)c1ncc(S(=O)(=O)c2ccc(OC(F)(F)F)cc2)cc1N [Compound 21, 3-amino-N-[(2S)-2-hydroxypropyl]-5-{[4-(trifluoromethoxy)phenyl]sulfonyl}pyridine-2-carboxamide]		847	1630
Nc1cc(S(=O)(=O)c2ccc(OC(F)(F)F)cc2)cnc1C(=O)NCC(O)C(F)(F)F (stereo not shown) [Compound 6, 3-amino-N-(3,3,3-trifluoro-2-hydroxypropyl)-5-{[4-(trifluoromethoxy)phenyl]sulfonyl}pyridine-2-carboxamide]			443

Further lines, results first:

EC50 (ΔF508 CFTR) [nM]	EC50 (CFTR G551D/ΔF508) [nM]	EC50 (G551D CFTR) [nM]	SMILES
		1230	Nc1cc(S(=O)(=O)c2ccc(OC(F)(F)F)cc2)cnc1C(=O)NC[C@H](O)C(F)(F)F [Compound 26, 3-amino-N-[(2S)-3,3,3-trifluoro-2-hydroxypropyl]-5-{[4-(trifluoromethoxy)phenyl]sulfonyl}pyridine-2-carboxamide]
	443		Nc1cc(S(=O)(=O)c2ccc(OC(F)(F)F)cc2)cnc1C(=O)N1CC(F)(F)C1 [Compound 40, (3-amino-5-{[4-(trifluoromethoxy)phenyl]sulfonyl}pyridin-2-yl)(3,3-difluoroazetidin-1-yl)methanone]
10.4	232		Nc1cc(S(=O)(=O)c2ccc(OC(F)(F)F)cc2)cnc1C(=O)NC[C@@H](O)C(F)(F)F [Compound 37, 3-amino-N-[(2R)-3,3,3-trifluoro-2-hydroxypropyl]-5-{[4-(trifluoromethoxy)phenyl]sulfonyl}pyridine-2-carboxamide]
	3520	622	COC[C@H](O)CNC(=O)c1ncc(S(=O)(=O)c2ccc(C(F)(F)F)cc2)cc1N [Compound 70, 3-amino-N-[(2R)-2-hydroxy-3-methoxypropyl]-5-{[4-(trifluoromethyl)phenyl]sulfonyl}pyridine-2-carboxamide]
	632	824	Nc1cc(S(=O)(=O)c2ccc(OC(F)(F)F)cc2)cnc1C(=O)NCC(O)COCC1CC1 (stereo not shown) [Compound 31, 3-amino-N-[3-(cyclopropylmethoxy)-2-hydroxypropyl]-5-{[4-(trifluoromethoxy)phenyl]sulfonyl}pyridine-2-carboxamide]
63.2	1010	735	Nc1cc(S(=O)(=O)c2ccc(F)cc2)cnc1C(=O)NC[C@@H](O)C(F)(F)F [Compound 36, 3-amino-5-[(4-fluorophenyl)sulfonyl]-N-[(2R)-3,3,3-trifluoro-2-hydroxypropyl]pyridine-2-carboxamide]
	2380	1190	C[C@H](O)CNC(=O)c1ncc(S(=O)(=O)c2ccc(C(F)(F)F)cc2)cc1N [Compound 100, 3-amino-N-[(2S)-2-hydroxypropyl]-5-{[4-(trifluoromethyl)phenyl]sulfonyl}pyridine-2-carboxamide]
